Counter-ions that a name gives are not always drawn.
Assays:
eyes [1] = assay: Topical pharmaceutical composition administered to the eyes as drops (present-tense composition examples); assay type: in vivo, patient; settings: composition of Example 90 (0.50 wt %); for effect on hyperemia, redness and ocular irritation: drop as needed; for neuroprotective effect: topical drop 4 times per day
eyes [2] = assay: as above; assay type: in vivo, patient; settings: composition of Example 90 (0.50 wt %)
Description: (§1) Topical pharmaceutical compositions for lowering intraocular pressure are prepared by conventional methods and formulated as follows: […]
A compound according to this invention is used as the 6- or 7-aminoisoquinoline derivative. When the composition is topically administered to the eyes once or more daily as 40 microliter drops, the above composition decreases intraocular pressure in a patient suffering from glaucoma.

[3] = tested on: eyes of a Dutch-belted rabbit; assay: Intraocular pressure after a topical drop to the eyes of Dutch-belted rabbits; assay type: in vivo; settings: composition of Example 105 (0.30 wt %), 40 microliter drop topically once daily; for decrease of intraocular pressure: in some tests
Description: as §1
A pharmaceutical composition was prepared according to Example 105, where the 6-aminoisoquinoline derivative was (R)-2-(dimethylamino)-N-(1-hydroxyisoquinolin-6-yl)-2-(thiophen-3-yl)acetamide hydrochloride (E79). […] In some tests, the intraocular pressure was decreased by greater than 5 mm of mercury.

[4] = topical drop twice a day or as needed

`CN(C)[C@@H](C(=O)Nc1ccc2cnccc2c1)c1ccccc1` [Example E3, (R)-2-(dimethylamino)-N-(isoquinolin-6-yl)-2-phenylacetamide dihydrochloride] was tested, and the “effect on hyperemia, redness and ocular irritation” value (eyes [1]) was “substantially decreases hyperemia, redness and ocular irritation” and the “effect on intraocular pressure” value (eyes [2]; topical drop twice per day) was “substantially decreases intraocular pressure”.

For `O=C(Nc1ccc2cnccc2c1)[C@@H](c1ccccc1)N1CCCNC1` [Example E41, (R)—N-(isoquinolin-6-yl)-2-phenyl-2-(tetrahydropyrimidin-1(2H)-yl)acetamide], the “effect on intraocular pressure” value (eyes [2]; [4]) was “substantially decreases intraocular pressure”.

In the case of `CN[C@@H](CC(C)C)C(=O)Nc1ccc2ccncc2c1` [Example E88, (S)—N-(isoquinolin-7-yl)-4-methyl-2-(methylamino)pentanamide dihydrochloride], the “effect on intraocular pressure” value (eyes [2]; topical drop 4 times per day) is reported as “substantially decreases intraocular pressure”.

For `CC(C)C[C@@H](C(=O)Nc1ccc2ccncc2c1)N(C)C(=O)OC(C)(C)C` [Example E87, (S)-tert-butyl 1-(isoquinolin-7-ylamino)-4-methyl-1-oxopentan-2-yl(methyl)carbamate], the “effect on intraocular pressure” value (eyes [2]; topical drop 4 times per day) was “substantially decreases intraocular pressure”.

With `CCCN[C@H](C(=O)Nc1ccc2cnccc2c1)C1CCCCC1` [Example E25, (S)-2-cyclohexyl-N-(isoquinolin-6-yl)-2-(propylamino)acetamide] the “effect on intraocular pressure” value (eyes [2]; [4]) was “substantially decreases intraocular pressure”.

For `O=S(=O)(Nc1ccc2cnccc2c1)C(NC1CCCCC1)c1ccccc1` (stereo not shown) [Example E50], the “effect on allergic symptoms” value (eyes [1]; topical drop twice per day) was “substantially decreases allergic symptoms” and the “effect on dry eye syndrome” value (eyes [1]; topical drop twice per day) was “relieves dry eye syndrome”.

For `CN(C)[C@@H](C(=O)Nc1ccc2cnccc2c1)c1ccsc1.Cl` [Example E80, (R)-2-(dimethylamino)-N-(isoquinolin-6-yl)-2-(thiophen-3-yl)acetamide hydrochloride], the “effect on intraocular pressure” value [3] was “substantially decreased intraocular pressure” and the “decrease of intraocular pressure” value [3] was “greater than 5 mm of mercury”.

With `N[C@@H](C(=O)Nc1ccc2cnccc2c1)c1ccccc1` [Example E2, (R)-2-amino-N-(isoquinolin-6-yl)-2-phenylacetamide dihydrochloride] the neuroprotective effect (eyes [1]) was “serves as a neuroprotective agent” and the “effect on intraocular pressure” value (eyes [2]; topical drop 4 times per day) was “substantially decreases intraocular pressure”.

With `O=C(Nc1ccc2cnccc2c1)[C@@H](c1ccccc1)N1CCNCC1` [Example E40, (R)—N-(isoquinolin-6-yl)-2-phenyl-2-(piperazin-1-yl)acetamide] the “effect on hyperemia, redness and ocular irritation” value (eyes [1]) was “substantially decreases hyperemia, redness and ocular irritation”.

In the case of `Cl.Cl.N[C@@H](C(=O)Nc1ccc2cnccc2c1)C1CCCCC1` [Example E9, (R)—N-(isoquinolin-6-ylamino)-2-amino-2-cyclohexyl acetamide dihydrochloride], the “effect on allergic symptoms” value (eyes [1]; topical drop as needed) is reported as “substantially decreases allergic symptoms”.

For `CN(C)[C@@H](C(=O)Nc1ccc2c(O)nccc2c1)c1ccsc1` [Example E79, (R)-2-(dimethylamino)-N-(1-hydroxyisoquinolin-6-yl)-2-(thiophen-3-yl)acetamide hydrochloride], the “effect on intraocular pressure” value [3] was “substantially decreased intraocular pressure” and the “decrease of intraocular pressure” value [3] was “greater than 5 mm of mercury”.

“(R)—N-(isoquinolin-6-yl amino)-2-(methylamino)-2-o-fluorophenyl acetamide dihydrochloride [Example E17]” was tested, and the neuroprotective effect (eyes [1]) was “serves as a neuroprotective agent” and the “effect on intraocular pressure” value (eyes [2]; topical drop 4 times per day) was “substantially decreases intraocular pressure”.

“(R)—N-(isoquinolin-6-yl-amino)-2-(ethylamino)-2-p-methylphenyl acetamide dihydrochloride [Example E18]” was tested, and the “effect on intraocular pressure” value (eyes [2]; topical drop twice per day) was “substantially decreases intraocular pressure”.

Source: US8455514B2 (Aerie Pharmaceuticals, Inc., priority 2008, dated 2013)
